Patent US20240122865A1, “Methods of Protecting RNA” (Pfizer Inc., priority 2021, published 2024)
Where “and” joins values, the source holds several entries; their conditions need not be identical. Equal values may be shown once.

How the values were obtained:
Format in all cases: biochemical, Trichoderma atroviride
Chi18 model RNA [1] = experiment: TapeStation Assay, Chi18 model RNA; design: Conc. chi18#1 / Conc. chi18#2: unit not given here; settings: for % Control N = 1 / % Control N = 2 / % Control Avg.: Chi18 RNA, 20 mM amino acids, 50 mM CAPS pH 11, 50° C. 15 min; for % Control N = 1 / % Control N = 2: vs Time 0; for % Control Avg.: vs Time 0, Avg N=2; for Conc. chi18#1 / Conc. chi18#2: intact Chi18 RNA after 15 min at 50° C.; for Conc. chi18#1: 20 mM amino acids in 50 mM CAPS pH 11, run #1; for Conc. chi18#2: 20 mM amino acids in 50 mM CAPS pH 11, run #2
Summary of the method: (§1)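 Chi18 or FgenL model RNA at 50 ng/μL in 50 mM CAPS pH 11 was mixed with amino acids (stocks in CAPS, readjusted to >pH 11) and heated at 50° C for 0 or 15 minutes; time-0 samples stayed on ice. Intact RNA was measured by capillary electrophoresis with optical detection and compared with a no-degradation baseline.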

FgenL mRNA construct = experiment: Size Exclusion Base Hydrolysis Degradation Assay, FgenL; settings: 25 mM amino acid; for T0 R1 peak area at 250 nm: FgenL 0.1 mg/mL, 50 mM CAPS, T=0, replicate 1; for T2 Avg, peak area as percentage of T=0 / T2 R1 peak area at 250 nm / T10 Avg, peak area as percentage of T=0 / T10 R1 peak area at 250 nm / T24 Avg, peak area as percentage of T=0 / T24 R1 peak area at 250 nm / T0 Avg, peak area as percentage of T=0: FgenL; for T2 Avg, peak area as percentage of T=0 / T2 R1 peak area at 250 nm / T10 Avg, peak area as percentage of T=0 / T10 R1 peak area at 250 nm / T24 Avg, peak area as percentage of T=0 / T24 R1 peak area at 250 nm: 50 mM CAPS pH 11, room temperature; for T2 Avg, peak area as percentage of T=0 / T2 R1 peak area at 250 nm: 2 hrs; for T2 R1 peak area at 250 nm / T10 R1 peak area at 250 nm / T24 R1 peak area at 250 nm: replicate 1; for T10 Avg, peak area as percentage of T=0 / T10 R1 peak area at 250 nm: 10 hrs; for T24 Avg, peak area as percentage of T=0 / T24 R1 peak area at 250 nm: 24 hrs; for T0 Avg, peak area as percentage of T=0: T=0 (reference)
Description: Basic assay procedure: RNA samples were diluted to 1.0 mg/mL in DNAase/RNAase free water. Amino acids were dissolved in water to a stock solution of 100 mM and a solution of 500 mM CAPS pH 11 was used. The two mRNA constructs tested were FgenL and Chi18. Each individual sample volume was 50 μL. To determine the amount of 1 M NaOH needed to adjust the final pH to 11.0 after the addition of all sample components, the sample volume was increased 100 fold (5 mL), the volume of 1 M NaOH recorded and this value was translated back down to the 50 μL sample volume.
The mRNA and amino acid were allowed to incubate for one hour prior to the addition of CAPS pH 11. All steps of the assay were conducted at room temperature.
Degradation reaction: After the CAPS addition, the samples were injected onto the Waters H-Class UPLC system to record the first timepoint, T=O. This resulting chromatogram was processed by integrating the area of absorbance at 250 nm for the mRNA construct. Immediately following this timepoint, the pH was adjusted to 11. Subsequent time points (2 hrs, 10 hrs, and 24 hrs) recorded the Absorbance Units (peak area) at 250 nm as a percentage of the peak area determined at T=O. Integration of the chromatogram for subsequent timepoints was conducted by analyzing the area of absorbance at 250 nm contained within the same time window in which the peak eluted in T=0 for the 100% intact mRNA.

FgenL model RNA [2] = experiment: TapeStation Assay, FgenL model RNA; design: Conc. FgenL#1 / Conc. FgenL#2: unit not given here; settings: for % Control N = 1 / % Control N = 2 / % Control Average: FgenL RNA, 20 mM amino acids, 50 mM CAPS pH 11, 50° C. 15 min; for % Control N = 1 / % Control N = 2: vs Time 0; for % Control Average: vs Time 0, Avg N=2; for Conc. FgenL#1 / Conc. FgenL#2: intact FgenL RNA after 15 min at 50° C.; for Conc. FgenL#1: 20 mM amino acids in 50 mM CAPS pH 11, run #1; for Conc. FgenL#2: 20 mM amino acids in 50 mM CAPS pH 11, run #2
Summary of the method: as §1

FgenL model RNA [3] = settings: percent protection, pH 11.0, 44° C., 16 hours, n = 2
Chi18 model RNA [4] = experiment: Droplet Digital Polymerase Chain Reaction (ddPCR) Assay, Chi18; settings: percent protection, pH 11.0, 30° C., 16 hours, n = 2
Summary of the method: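 Chi18 (25 fg/μL) or FgenL (10 fg/μL) RNA at pH 11.0 incubated 16 h with amino acids (10-point half-log series, ~300 mM top stock in CAPS), at 30° C or 44° C respectively. Intact RNA reverse-transcribed, ddPCR 5′-positive droplet fraction taken as protection; EC50 from four-parameter logistic fit.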

SMILES | % Control N = 1 (Chi18 model RNA [1]) [%] | % Control N = 2 (Chi18 model RNA [1]) [%] | % Control Avg. (Chi18 model RNA [1]) [%] | Conc. chi18#1 (Chi18 model RNA [1]) | Conc. chi18#2 (Chi18 model RNA [1]) | T0 R1 peak area at 250 nm (FgenL mRNA construct) | T2 Avg, peak area as percentage of T=0 (FgenL mRNA construct) [%] | T2 R1 peak area at 250 nm (FgenL mRNA construct) | T10 Avg, peak area as percentage of T=0 (FgenL mRNA construct) [%] | T10 R1 peak area at 250 nm (FgenL mRNA construct) | T24 Avg, peak area as percentage of T=0 (FgenL mRNA construct) [%] | T24 R1 peak area at 250 nm (FgenL mRNA construct) | T0 Avg, peak area as percentage of T=0 (FgenL mRNA construct) [%] | % Control N = 1 (FgenL model RNA [2]) [%] | % Control N = 2 (FgenL model RNA [2]) [%] | % Control Average (FgenL model RNA [2]) [%] | Conc. FgenL#1 (FgenL model RNA [2]) | Conc. FgenL#2 (FgenL model RNA [2]) | EC50 (FgenL model RNA [3]) [mM] | EC50 (Chi18 model RNA [4]) [mM] | also measured
C[C@@H](O)[C@H](N)C(=O)O [Threonine] | 51.4 | 40.8 | 46.1 | 27.4 | 21.6 | 17711 | 47.3 | 8436 | 2.6 | 904 | 0.0 | 0 | 100.0 | 49.3 | 34.6 | 41.9 | 17 | 12 | > 30 | > 30 | 
N[C@@H](Cc1c[nH]c2ccccc12)C(=O)O [Tryptophan] | 2.9 | 2.9 | 2.9 | 1.57 |  | 15191 | 30.2 | 4991 | 0.0 | 0 | 0.0 | 0 | 100.0 | 3.5 | 1.5 | 2.5 | 1.21 | 0.51 | > 30 | > 30 | 
N=C(N)NCCC[C@H](N)C(=O)O [Arginine] | 5.2 | 4.7 | 4.9 | 2.78 | 2.46 | 14624 | 0.0 | 0 | 0.0 | 0 | 0.0 | 0 | 100.0 | 4.2 | 3.3 | 3.8 | 1.46 | 1.15 | > 30 | 7.6 | 
CC(C)[C@H](N)C(=O)O [Valine] | 32.5 | 32.5 | 32.5 | 17.3 |  | 17745 | 22.8 | 4305 | 0.0 | 0 | 0.0 | 0 | 100.0 | 25.4 | 18.4 | 21.9 | 8.77 | 6.38 | > 30 | > 30 | 
N[C@@H](CS)C(=O)O [Cysteine] | 4.5 | 3.5 | 4.0 | 2.39 | 1.85 |  |  |  |  |  | 0.0 | 0 | 100.0 | 4.9 | 5.9 | 5.4 | 1.7 | 2.05 | > 30 | > 30 | T0 R1 peak area at 250 nm (FgenL mRNA construct; listed as Cys): 23851 and 18041; T2 R1 peak area at 250 nm (FgenL mRNA construct; listed as Cys): 17633 and 6085; T2 Avg, peak area as percentage of T=0 (FgenL mRNA construct; listed as Cys): 58.8% and 30.1%; T10 R1 peak area at 250 nm (FgenL mRNA construct; listed as Cys): 3767 and 0; T10 Avg, peak area as percentage of T=0 (FgenL mRNA construct; listed as Cys): 8.8% and 0.0%
CC[C@H](C)[C@H](N)C(=O)O [Isoleucine] | 19.3 | 24.2 | 21.8 | 10.3 | 12.8 | 14903 | 7.2 | 1687 | 0.0 | 0 | 0.0 | 0 | 100.0 | 12.2 | 9.5 | 10.8 | 4.22 | 3.28 | > 30 | > 19 | 
